Source: patent publication US20230040357A1, “PHARMACEUTICAL COMPOSITION AND HEALTH FUNCTIONAL FOOD FOR PREVENTING, AMELIORATING OR TREATING DIABETES CONTAINING WASP EXTRACT AS ACTIVE INGREDIENT” (Andong National University Industry-Academic cooperation …, priority 2021, published 2023)
Values joined by “and” are separate entries in the source; they are usually repeats but may differ in a detail not shown here. Equal values may be shown once.

Tested on: human erythrocytes
Assay: human erythrocyte hemolytic activity
Type: cell-based
Conditions: 37° C., 30 minutes
Description: In order to evaluate the acute toxicities of the wasp extracts, the human erythrocyte hemolytic activities of the wasp extracts were evaluated, and the results of the evaluation are shown in Table 3 below. At this time, the hemolytic activity was evaluated according to a previous report (Son Ho-Yong et al., 2014, Korean J. Microbiol. Biotechnol. 42: 285-292). Briefly, 100 μl of human erythrocytes were washed three times with PBS and added to a 96-well microplate, and 100 μl of a sample solution at various concentrations was added thereto and then allowed to react at 37° C. for 30 minutes. Thereafter, the reaction solution was centrifuged at 1,500 rpm for 10 minutes, and 100 μl of the supernatant was transferred to a fresh microtiter plate, and then the degree of hemoglobin leakage following hemolysis was measured at 414 nm. DMSO (2%) was used as a solvent control for the sample, and Triton X-100 (1 mg/ml) was used as an experimental control for hemolysis of erythrocytes. Hemolytic activity was calculated using the following equation.
(%) Hemolysis=[(Abs. S−Abs. C)/(Abs. T−Abs. C)]×100
Abs. S: absorbance of sample-added group
Abs. C: absorbance of DMSO-added group
Abs. T: absorbance of Triton X-100-added group

Triton X-100
Human erythrocyte hemolytic activity (1.0 mg/ml): 100% and 100.0 ± 0.1%

C[C@@H]1[C@H](O)[C@@H](C)/C=C/C=C/C=C/C=C/C=C/C=C/C=C/[C@H](O[C@@H]2O[C@H](C)[C@@H](O)[C@H](N)[C@@H]2O)C[C@@H]2O[C@](O)(C[C@@H](O)C[C@@H](O)[C@H](O)CC[C@@H](O)C[C@@H](O)CC(=O)O[C@H]1C)C[C@H](O)[C@H]2C(=O)O [Amphotericin B]
Human erythrocyte hemolytic activity (0.0032 mg/ml): 6.54 ± 0.9% | Human erythrocyte hemolytic activity (0.0063 mg/ml): 21.6 ± 3.7% | Human erythrocyte hemolytic activity (0.0125 mg/ml): 48.2 ± 5.9% | Human erythrocyte hemolytic activity (0.05 mg/ml): 72.4 ± 5.2% | Human erythrocyte hemolytic activity (0.1 mg/ml): 95.8 ± 0.3%
